What all share (assay type): ADME, organism-based
Data set [1] in a line: Cmax in healthy human subjects at 40 mg with water administered as single dose measured upto 24 hrs by LC-MS analysis. Further details: dose 40 mg. The conditions noted are these: in vivo, oral.
A short description of data set [2]: Elimination half life in healthy human subjects at 40 mg with water administered as single dose measured upto 24 hrs by LC-MS analysis. To be noted: in vivo, oral, read-out: beta t1/2 (converted).
Data set [3] in a line: AUC (0 to 24 hrs) in healthy human subjects at 40 mg with water administered as single dose measured upto 24 hrs by LC-MS analysis. Set-up: time < 24 hr, dose 40 mg. To be noted: in vivo, oral.
Data set [4] deals with Homo sapiens. The experiment in a line: Cmax in healthy human subjects assessed as simvastatin acid at 40 mg with water administered as single dose measured upto 24 hrs by LC-MS analysis. Further details: dose 40 mg. To be noted: in vivo, po.
For data set [5], the system named is Homo sapiens. The experiment in a line: Elimination half life in healthy human subjects assessed as simvastatin acid at 40 mg with water administered as single dose measured upto 24 hrs by LC-MS analysis. To be noted: in vivo.
Data set [6] deals with Homo sapiens. Briefly: AUC (0 to 24 hrs) in healthy human subjects assessed as simvastatin acid at 40 mg with water administered as single dose measured upto 24 hrs by LC-MS analysis. Further details: dose 40 mg, time < 24 hr. To be noted: in vivo, po.
Data set [7] can be described thus: Cmax in healthy human subjects at 40 mg with 200 ml grape fruit juice drug administered as single dose on day 3 of grape fruit juice challenge measured upto 24 hrs by LC-MS analysis. Further details: dose 40 mg. To be noted: in vivo, oral.
Data set [8] in a line: Elimination half life in healthy human subjects at 40 mg with 200 ml grape fruit juice drug administered as single dose on day 3 of grape fruit juice challenge measured upto 24 hrs by LC-MS analysis. The conditions noted are these: in vivo, oral, read-out: beta t1/2 (converted).
Data set [9] in a line: AUC (0 to 24 hrs) in healthy human subjects at 40 mg with 200 ml grape fruit juice drug administered as single dose on day 3 of grape fruit juice challenge measured upto 24 hrs by LC-MS analysis. Further details: dose 40 mg, time < 24 hr. To be noted: in vivo, oral.
In data set [10] the test system is Homo sapiens. Briefly: Cmax in healthy human subjects assessed as simvastatin acid at 40 mg with 200 ml grape fruit juice drug administered as single dose on day 3 of grape fruit juice challenge measured upto 24 hrs by LC-MS analysis. Further details: dose 40 mg. To be noted: in vivo.
Data set [11] concerns Homo sapiens. Briefly: Elimination half life in healthy human subjects assessed as simvastatin acid at 40 mg with 200 ml grape fruit juice drug administered as single dose on day 3 of grape fruit juice challenge measured upto 24 hrs by LC-MS analysis. To be noted: in vivo.
Data set [12] relates to Homo sapiens. Briefly: AUC (0 to 24 hrs) in healthy human subjects assessed as simvastatin acid at 40 mg with 200 ml grape fruit juice drug administered as single dose on day 3 of grape fruit juice challenge measured upto 24 hrs by LC-MS analysis. Further details: time < 24 hr, dose 40 mg. The conditions noted are these: in vivo.

The text below walks through data of ChEMBL document CHEMBL3785024 (Br J Clin Pharmacol, 2004).

Structures are written as SMILES.

By Cmax is commonly meant the maximum level reached in the sampled fluid or tissue. The term AUC(0-t) denotes the area under the concentration-time curve up to a stated or last time point. Higher therefore signals high exposure. Usually AUC stands for concentration integrated over time.

Regarding `CCC(C)(C)C(=O)O[C@H]1C[C@@H](C)C=C2C=C[C@H](C)[C@H](CC[C@@H]3C[C@@H](O)CC(=O)O3)[C@H]21` [SIMVASTATIN], the Cmax was 7.3 ng/mL in data set [1], 2.6 ng/mL in data set [4], 28.5 ng/mL in [7] and 11.1 ng/mL in data set [10]. The figures for the half-life in data set [2] and in [8] were 2.7 h and 2 h, respectively. Also, the exposure AUC(0-t) at 24 h in data set [3] worked out at 31.6 ng·h/mL; in [9], 112 ng·h/mL. For the same compound, the “beta t1/2” value in data set [5] was 2.9 h; in data set [11], 2.4 h. For the same compound, the AUC in data set [6] stood at 18.5 ng·h/mL; in data set [12], 62 ng·h/mL.
